# Experimental data reported in ChEMBL document CHEMBL3390844, “Development of substituted 7-phenyl-4-aminobenzothieno[3,2-d] pyrimidines as potent LIMK1 inhibitors” (Medchemcomm, 2011).
# What was measured:
# CYP3A4 = CYP3A4 (Homo sapiens, UniProt P08684); test: Inhibition of CYP3A4 in human liver microsomes assessed as reduction in apparent rate of formation of metabolites using midazolam or testosterone as substrate at 20 uM by LC-MS analysis; assay type: ADME; conditions: probe midazolam or testosterone
# [1] = molecular target: Serine/threonine-protein kinase PAK 4 (Homo sapiens) (UniProt O96013); test: Inhibition of PAK4 (unknown origin) at 1 uM
# [2] = molecular target: Tyrosine-protein kinase Lck (Homo sapiens) (UniProt P06239); test: Inhibition of Lck (unknown origin) at 1 uM
# [3] = molecular target: Rho-associated protein kinase 2 (Homo sapiens) (UniProt O75116); test: Inhibition of ROCK2 (unknown origin) at 1 uM
# [4] = molecular target: T1, Tyrosine-protein kinase JAK3 (Homo sapiens) (UniProt P52333); test: Inhibition of JAK3 (unknown origin) at 1 uM
# T1 sequence (whole entry): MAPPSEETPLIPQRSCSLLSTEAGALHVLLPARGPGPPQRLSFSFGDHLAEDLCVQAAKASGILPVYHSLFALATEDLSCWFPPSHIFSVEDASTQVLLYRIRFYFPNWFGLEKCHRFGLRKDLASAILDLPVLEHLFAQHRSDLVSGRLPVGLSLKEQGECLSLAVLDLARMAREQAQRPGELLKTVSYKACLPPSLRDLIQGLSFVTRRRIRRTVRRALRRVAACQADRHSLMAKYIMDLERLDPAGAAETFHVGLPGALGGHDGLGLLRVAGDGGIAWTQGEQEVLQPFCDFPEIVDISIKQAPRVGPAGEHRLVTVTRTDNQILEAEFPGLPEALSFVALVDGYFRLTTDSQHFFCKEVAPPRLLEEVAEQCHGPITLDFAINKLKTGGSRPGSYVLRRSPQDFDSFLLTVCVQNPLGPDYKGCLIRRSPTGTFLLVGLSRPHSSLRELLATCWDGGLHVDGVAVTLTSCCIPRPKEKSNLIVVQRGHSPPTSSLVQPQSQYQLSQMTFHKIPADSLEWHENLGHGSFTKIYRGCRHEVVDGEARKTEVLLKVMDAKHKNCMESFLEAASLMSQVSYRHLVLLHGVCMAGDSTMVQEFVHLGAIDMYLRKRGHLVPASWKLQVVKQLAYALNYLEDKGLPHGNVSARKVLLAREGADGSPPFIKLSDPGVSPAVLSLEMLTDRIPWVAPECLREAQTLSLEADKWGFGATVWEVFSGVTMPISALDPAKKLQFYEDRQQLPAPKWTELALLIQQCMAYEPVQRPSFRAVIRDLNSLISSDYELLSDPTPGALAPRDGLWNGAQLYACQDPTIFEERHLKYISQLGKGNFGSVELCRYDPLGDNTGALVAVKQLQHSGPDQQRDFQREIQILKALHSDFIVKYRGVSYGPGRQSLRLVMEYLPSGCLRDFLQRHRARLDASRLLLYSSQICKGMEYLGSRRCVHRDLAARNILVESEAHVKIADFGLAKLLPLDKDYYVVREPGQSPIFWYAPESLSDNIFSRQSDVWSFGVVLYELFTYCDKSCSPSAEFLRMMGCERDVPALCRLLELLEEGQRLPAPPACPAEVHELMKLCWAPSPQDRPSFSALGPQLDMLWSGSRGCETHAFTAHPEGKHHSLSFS
# [5] = molecular target: Tyrosine-protein kinase JAK2 (Homo sapiens) (UniProt O60674); test: Inhibition of JAK2 (unknown origin) at 1 uM
# [6] = molecular target: Tyrosine-protein kinase JAK1 (Homo sapiens) (UniProt P23458); test: Inhibition of JAK1 (unknown origin) at 1 uM
# [7] = In vitro intrinsic clearance in human liver microsomes at 1 uM by LC-MS analysis; assay type: ADME; conditions: read-out: CLH
# [8] = Solubility of the compound in phosphate buffer at pH 6.5 by nephelometry; assay type: physicochemical
# CYP1A2 = molecular target: T2, CYP1A2 (Homo sapiens, UniProt P05177); test: Inhibition of CYP1A2 in human liver microsomes assessed as reduction in apparent rate of formation of metabolites using phenacetin as substrate at 20 uM by LC-MS analysis; assay type: ADME; conditions: probe phenacetin
# T2 sequence (P05177 whole entry): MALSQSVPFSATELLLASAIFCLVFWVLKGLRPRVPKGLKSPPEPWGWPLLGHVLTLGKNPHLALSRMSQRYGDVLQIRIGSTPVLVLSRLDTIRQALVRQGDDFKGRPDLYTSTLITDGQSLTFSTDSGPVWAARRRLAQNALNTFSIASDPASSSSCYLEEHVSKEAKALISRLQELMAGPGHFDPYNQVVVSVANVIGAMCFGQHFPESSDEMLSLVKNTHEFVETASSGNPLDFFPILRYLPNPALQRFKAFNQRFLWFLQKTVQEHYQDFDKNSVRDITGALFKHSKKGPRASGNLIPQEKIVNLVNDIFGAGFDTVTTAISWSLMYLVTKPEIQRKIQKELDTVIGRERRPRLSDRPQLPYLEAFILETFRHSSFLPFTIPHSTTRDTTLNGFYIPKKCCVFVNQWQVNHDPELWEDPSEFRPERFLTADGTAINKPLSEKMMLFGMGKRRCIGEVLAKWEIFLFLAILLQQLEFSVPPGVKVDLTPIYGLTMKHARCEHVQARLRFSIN
# [9] = Plasma protein binding in human by LC-MS analysis; assay type: ADME, cell-free; conditions: read-out: PPB (converted)
# [10] = molecular target: Proto-oncogene tyrosine-protein kinase Src (Homo sapiens) (UniProt P12931); test: Inhibition of Src (unknown origin) at 1 uM
# [11] = In vitro intrinsic clearance in mouse liver microsomes at 1 uM by LC-MS analysis; assay type: ADME; conditions: read-out: CLH
# LIM domain kinase 1 [12] = molecular target: T3, LIM domain kinase 1 (Homo sapiens, UniProt P53667); test: Inhibition of LIMK1-catalyzed cofilin phosphorylation in human ZR-75-1 cells; assay type: cell-based
# [13] = Solubility of the compound in 0.01 M HCl at pH 2 by nephelometry; assay type: physicochemical
# hERG (KCNH2) = hERG (KCNH2) (Homo sapiens, UniProt Q12809); test: Inhibition of human ERG at 10 uM by fluorescence polarization assay
# LIM domain kinase 2 = LIM domain kinase 2 (Homo sapiens, UniProt P53671); test: Inhibition of LIMK2 (unknown origin)
# LIM domain kinase 1 [14] = molecular target: T3, LIM domain kinase 1; test: Inhibition of LIMK1 (unknown origin) assessed as ADP formation using cofilin-2 protein as substrate measured after 60 mins incubation with enzyme by Transcreener assay
# [15] = Partition coefficient, log D of the compound at pH 7.4 by HPLC analysis; assay type: physicochemical; conditions: octanol/water
# [16] = molecular target: Serine/threonine-protein kinase PAK 1 (Homo sapiens) (UniProt Q13153); test: Inhibition of PAK1 (unknown origin) at 1 uM
# CYP2D6 (Homo sapiens) = test: Inhibition of CYP2D6 in human liver microsomes assessed as reduction in apparent rate of formation of metabolites using dextromethorphan as substrate at 20 uM by LC-MS analysis; conditions: probe dextromethorphan
# LIM domain kinase 1 [17] = molecular target: T3, LIM domain kinase 1; test: Inhibition of LIMK1 (unknown origin) assessed as remaining ATP level using cofilin-2 protein as substrate measured after 60 mins incubation with enzyme by KinaseGlo assay
# Chain of Rho-associated protein kinase 2 (Homo sapiens) (O75116 whole entry, looked up): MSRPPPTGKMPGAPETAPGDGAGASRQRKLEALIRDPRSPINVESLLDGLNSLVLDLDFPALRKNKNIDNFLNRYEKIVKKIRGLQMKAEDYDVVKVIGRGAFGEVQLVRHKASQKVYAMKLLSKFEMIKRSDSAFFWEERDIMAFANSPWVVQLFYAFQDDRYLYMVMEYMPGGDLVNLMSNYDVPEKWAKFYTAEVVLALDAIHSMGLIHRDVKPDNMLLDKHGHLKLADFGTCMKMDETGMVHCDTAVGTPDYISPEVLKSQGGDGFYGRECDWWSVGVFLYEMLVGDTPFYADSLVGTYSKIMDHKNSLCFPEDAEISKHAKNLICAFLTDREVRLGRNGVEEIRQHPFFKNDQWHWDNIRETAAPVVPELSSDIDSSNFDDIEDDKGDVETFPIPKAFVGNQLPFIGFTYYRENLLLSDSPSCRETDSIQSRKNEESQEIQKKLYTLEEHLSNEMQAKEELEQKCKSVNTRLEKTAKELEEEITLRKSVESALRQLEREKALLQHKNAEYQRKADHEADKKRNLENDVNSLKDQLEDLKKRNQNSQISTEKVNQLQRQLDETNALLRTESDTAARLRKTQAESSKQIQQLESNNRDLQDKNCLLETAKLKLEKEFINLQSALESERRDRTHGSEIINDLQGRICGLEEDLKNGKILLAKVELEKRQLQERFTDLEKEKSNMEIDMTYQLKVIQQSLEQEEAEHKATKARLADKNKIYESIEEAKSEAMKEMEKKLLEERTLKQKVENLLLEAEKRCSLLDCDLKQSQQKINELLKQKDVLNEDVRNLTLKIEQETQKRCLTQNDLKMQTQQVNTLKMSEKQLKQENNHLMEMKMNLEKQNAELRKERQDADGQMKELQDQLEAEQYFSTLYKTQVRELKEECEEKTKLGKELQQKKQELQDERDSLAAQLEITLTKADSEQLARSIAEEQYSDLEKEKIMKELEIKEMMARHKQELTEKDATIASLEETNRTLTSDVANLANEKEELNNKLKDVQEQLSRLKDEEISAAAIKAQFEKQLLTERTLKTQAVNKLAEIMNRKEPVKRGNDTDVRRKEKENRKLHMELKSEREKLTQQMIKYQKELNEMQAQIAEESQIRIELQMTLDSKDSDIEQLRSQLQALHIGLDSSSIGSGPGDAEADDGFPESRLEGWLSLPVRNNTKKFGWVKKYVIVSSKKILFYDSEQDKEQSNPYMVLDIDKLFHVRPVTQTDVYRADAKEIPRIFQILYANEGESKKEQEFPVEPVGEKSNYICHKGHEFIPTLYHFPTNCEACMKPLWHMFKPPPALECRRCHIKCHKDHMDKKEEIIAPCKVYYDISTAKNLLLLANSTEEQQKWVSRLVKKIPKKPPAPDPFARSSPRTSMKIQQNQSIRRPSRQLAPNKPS
# Chain of Proto-oncogene tyrosine-protein kinase Src (Homo sapiens) (P12931 2-536 limits assumed): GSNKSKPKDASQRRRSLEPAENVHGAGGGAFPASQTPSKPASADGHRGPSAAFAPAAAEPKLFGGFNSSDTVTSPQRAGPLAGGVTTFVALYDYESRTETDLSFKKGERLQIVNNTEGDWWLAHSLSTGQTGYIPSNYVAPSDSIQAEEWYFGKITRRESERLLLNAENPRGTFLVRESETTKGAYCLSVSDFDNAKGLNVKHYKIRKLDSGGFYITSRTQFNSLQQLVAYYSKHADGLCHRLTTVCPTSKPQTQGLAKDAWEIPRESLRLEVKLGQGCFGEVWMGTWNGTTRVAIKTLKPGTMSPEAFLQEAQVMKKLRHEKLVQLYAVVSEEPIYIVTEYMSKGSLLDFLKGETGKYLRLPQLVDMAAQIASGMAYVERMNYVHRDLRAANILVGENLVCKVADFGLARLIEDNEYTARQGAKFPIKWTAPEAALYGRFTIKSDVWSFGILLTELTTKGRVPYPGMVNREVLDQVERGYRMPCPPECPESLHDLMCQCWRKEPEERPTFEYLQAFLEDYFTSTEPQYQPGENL
# Chain of Tyrosine-protein kinase JAK2 (Homo sapiens) (O60674 whole entry): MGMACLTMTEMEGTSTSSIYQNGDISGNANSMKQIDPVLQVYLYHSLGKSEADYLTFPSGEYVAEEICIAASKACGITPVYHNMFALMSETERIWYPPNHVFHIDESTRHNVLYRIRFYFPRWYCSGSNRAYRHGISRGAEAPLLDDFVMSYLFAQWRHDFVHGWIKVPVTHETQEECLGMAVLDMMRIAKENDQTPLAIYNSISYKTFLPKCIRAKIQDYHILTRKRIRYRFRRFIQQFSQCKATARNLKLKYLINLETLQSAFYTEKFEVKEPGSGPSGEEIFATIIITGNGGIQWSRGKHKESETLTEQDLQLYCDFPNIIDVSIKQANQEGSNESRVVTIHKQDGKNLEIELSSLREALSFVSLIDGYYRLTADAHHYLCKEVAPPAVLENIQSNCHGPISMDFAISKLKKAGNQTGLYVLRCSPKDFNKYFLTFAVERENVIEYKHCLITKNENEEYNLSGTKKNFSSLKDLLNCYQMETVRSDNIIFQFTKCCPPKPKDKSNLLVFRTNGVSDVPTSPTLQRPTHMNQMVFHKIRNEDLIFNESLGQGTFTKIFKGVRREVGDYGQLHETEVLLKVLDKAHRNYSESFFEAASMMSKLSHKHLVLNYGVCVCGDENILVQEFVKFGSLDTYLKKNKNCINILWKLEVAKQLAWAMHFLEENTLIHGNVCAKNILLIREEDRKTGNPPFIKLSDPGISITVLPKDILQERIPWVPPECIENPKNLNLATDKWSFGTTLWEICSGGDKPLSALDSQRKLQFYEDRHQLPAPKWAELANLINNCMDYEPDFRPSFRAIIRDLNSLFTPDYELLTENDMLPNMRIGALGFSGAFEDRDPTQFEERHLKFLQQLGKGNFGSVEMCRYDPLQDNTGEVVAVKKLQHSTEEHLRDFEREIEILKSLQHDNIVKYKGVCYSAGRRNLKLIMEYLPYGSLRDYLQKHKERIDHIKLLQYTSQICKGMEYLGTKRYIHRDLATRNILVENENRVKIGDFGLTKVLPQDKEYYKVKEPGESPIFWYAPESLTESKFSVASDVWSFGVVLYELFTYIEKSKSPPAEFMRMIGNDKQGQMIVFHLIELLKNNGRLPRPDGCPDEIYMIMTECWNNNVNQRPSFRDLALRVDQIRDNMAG
# Chain of Serine/threonine-protein kinase PAK 1 (Homo sapiens) (Q13153 whole entry): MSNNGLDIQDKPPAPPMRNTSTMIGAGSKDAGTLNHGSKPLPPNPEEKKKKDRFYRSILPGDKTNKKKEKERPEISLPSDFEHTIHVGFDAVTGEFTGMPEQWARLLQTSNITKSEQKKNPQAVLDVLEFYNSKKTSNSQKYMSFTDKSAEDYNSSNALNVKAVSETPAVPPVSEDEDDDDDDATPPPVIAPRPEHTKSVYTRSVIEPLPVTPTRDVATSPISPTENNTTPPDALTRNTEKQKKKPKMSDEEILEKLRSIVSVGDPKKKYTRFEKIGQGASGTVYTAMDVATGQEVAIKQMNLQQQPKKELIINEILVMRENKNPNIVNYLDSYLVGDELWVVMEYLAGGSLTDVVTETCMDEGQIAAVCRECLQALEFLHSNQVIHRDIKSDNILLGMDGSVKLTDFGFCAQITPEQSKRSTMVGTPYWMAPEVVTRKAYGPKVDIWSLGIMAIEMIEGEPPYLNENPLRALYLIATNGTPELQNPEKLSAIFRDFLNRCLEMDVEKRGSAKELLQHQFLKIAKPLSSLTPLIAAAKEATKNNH
# Chain of Serine/threonine-protein kinase PAK 4 (Homo sapiens) (O96013 whole entry, looked up): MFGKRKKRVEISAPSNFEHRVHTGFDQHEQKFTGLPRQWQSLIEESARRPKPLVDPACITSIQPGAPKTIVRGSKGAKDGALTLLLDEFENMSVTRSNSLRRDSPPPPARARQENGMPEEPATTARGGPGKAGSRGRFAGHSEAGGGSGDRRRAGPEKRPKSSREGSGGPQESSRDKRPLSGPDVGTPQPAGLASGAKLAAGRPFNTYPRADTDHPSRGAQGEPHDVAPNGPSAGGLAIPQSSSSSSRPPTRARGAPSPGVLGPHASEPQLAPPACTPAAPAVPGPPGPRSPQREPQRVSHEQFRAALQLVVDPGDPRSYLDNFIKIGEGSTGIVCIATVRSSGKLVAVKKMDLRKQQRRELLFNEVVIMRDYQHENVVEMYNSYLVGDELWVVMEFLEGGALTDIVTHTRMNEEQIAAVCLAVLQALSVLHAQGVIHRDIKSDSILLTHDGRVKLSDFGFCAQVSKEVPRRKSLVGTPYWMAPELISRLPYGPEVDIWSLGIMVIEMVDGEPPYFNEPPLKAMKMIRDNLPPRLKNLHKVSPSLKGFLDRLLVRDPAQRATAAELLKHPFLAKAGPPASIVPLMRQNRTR
# Chain of LIM domain kinase 2 (P53671 whole entry, the tested form may be a part): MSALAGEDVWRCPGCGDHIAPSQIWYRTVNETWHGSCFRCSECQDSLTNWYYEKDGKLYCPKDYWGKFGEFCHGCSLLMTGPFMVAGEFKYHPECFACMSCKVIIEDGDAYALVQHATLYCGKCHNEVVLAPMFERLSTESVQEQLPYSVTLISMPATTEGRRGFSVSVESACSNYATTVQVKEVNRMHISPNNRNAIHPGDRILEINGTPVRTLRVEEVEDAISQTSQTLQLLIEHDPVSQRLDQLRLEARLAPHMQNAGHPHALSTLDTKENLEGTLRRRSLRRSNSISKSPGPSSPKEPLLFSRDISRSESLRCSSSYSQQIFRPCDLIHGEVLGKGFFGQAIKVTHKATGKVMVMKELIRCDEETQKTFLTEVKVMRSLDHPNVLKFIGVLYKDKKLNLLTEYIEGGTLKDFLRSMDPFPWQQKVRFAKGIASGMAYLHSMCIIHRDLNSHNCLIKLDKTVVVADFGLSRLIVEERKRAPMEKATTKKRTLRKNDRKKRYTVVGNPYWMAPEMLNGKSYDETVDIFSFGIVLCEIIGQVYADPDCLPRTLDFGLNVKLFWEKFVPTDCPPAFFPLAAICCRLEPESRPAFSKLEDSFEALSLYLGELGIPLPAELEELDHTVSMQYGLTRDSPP
SMILES,inhibition at 20 µM (CYP3A4) [%],inhibition [1] [%],inhibition [2] [%],inhibition [3] [%],inhibition [4] [%],inhibition [5] [%],inhibition [6] [%],microsomal CLint at 1 µM [7] [µL/min/mg],solubility kinetic [8] [µg/mL],inhibition at 20 µM (CYP1A2) [%],fraction unbound [9],inhibition [10] [%],microsomal CLint at 1 µM [11] [µL/min/mg],IC50 (LIM domain kinase 1 [12]) [µM],solubility kinetic [13] [µg/mL],inhibition at 10 µM (hERG (KCNH2)) [%],IC50 (LIM domain kinase 2) [µM],IC50 (LIM domain kinase 1 [14]) [µM],logD [15],inhibition [16] [%],further results
Nc1ncnc2c1sc1cc(-c3cccc(C(=O)NCCc4cccnc4)c3)ccc12,99,13,85,13,60,98,31,116,< 1.6,13,0.014,23,111,4.1,50,11,0.133,0.097,2.7,8,inhibition at 20 µM (CYP2D6 (Homo sapiens)): 74%
CCNC(=O)Nc1ncc(-c2cc(-c3c(C)cc(OC)cc3C)nc(-c3cnccn3)n2)s1,,,,,,,,< 5,1.6,,,,10,,1.6,,0.696,0.054,3,,
Cn1c2cc(-c3ccccc3)ccc2c2ncnc(N)c21,,,,,,,,70,3.1,,,,572,,12.5,,,,3.4,,
Nc1ncnc2c1sc1cc(-c3cccc(NC(=O)N4CCCC4)c3)ccc12,82,7,71,10,56,95,13,77,3.1,28,,60,56,2.4,50,0,0.103,0.095,2.8,0,inhibition at 20 µM (CYP2D6 (Homo sapiens)): 9%
Nc1ncnc2c1sc1cc(-c3cccc(-c4nn[nH]n4)c3)ccc12,,,,,,,,< 5,6.3,,0.012,,< 6,> 30,6.3,,0.09,,2,,IC50 (LIM domain kinase 1 [17]): 0.05 µM
NC(=O)c1cccc(-c2ccc3c(c2)sc2c(N)ncnc23)c1,,,,,,,,< 5,3.1,,0.037,,26,> 30,25,,0.273,0.12,1.9,,IC50 (LIM domain kinase 1 [17]): 0.12 µM
Nc1ncnc2c1sc1cc(-c3ccccc3)ccc12,,,,,,,,114,< 1.6,,,,839,,6.3,,,,3.65,,
CCNC(=O)Nc1cccc(-c2ccc3c(c2)sc2c(N)ncnc23)c1,,,,,,,,24,1.6,,,,68,> 30,12.5,,0.164,0.087,2.4,,
Nc1ncnc2c1sc1cc(-c3cccc(C(=O)NCC(=O)N4CCOCC4)c3)ccc12,70,0,97,18,65,97,31,68,6.3,17,0.053,45,< 6,1.4,50,0,,0.081,2.1,23,
CC(C)C(=O)Nc1ncc(-c2cc(C(F)F)nn2-c2c(Cl)cccc2Cl)s1,,,,,,,,,,,0.029,,,,,,,,3.8,,
